Results from patent publication US20120225135A1 (priority 2010, published 2012).

Tests used:
[1] = system: Klebsiella terrigena, ATCC 33257; type: cell-based; details: pH 5
[2] = system: Giardia muris cysts; details: in vivo
[3] = system: Total Coliform; test: Disinfection of effluents, total coliforms; type: cell-based; details: for Total Coliforms: effluents, ClO2 dose 9.86 mg/L, 30 minutes; for Total Coliform per 100 mL: trickling filters effluents
[4] = system: E-Coli Phage; test: Disinfection of effluents, E. coli phage; type: cell-based; details: ClO2 dose 9.86 mg/L, 30 minutes
[5] = system: Lactobacillus frigidus; test: Microbiological effectiveness at cold temperatures; type: cell-based
[6] = system: Pichia (Hansenula) anomala (20 percent sporulated); test: Microbiological effectiveness at cold temperatures; type: cell-based
[7] = system: Rotavirus SA-11, ATCC VR-899; type: cell-based; details: pH 9
[8] = system: Legionella pneumophila, ATCC 33153; type: cell-based; details: pH 5
[9] = system: Total microbio counts
[10] = ORP stability test (ORP meter); type: physicochemical
From the text: Two further samples from the original batch were taken one was packed in an amber coloured PET bottle and the second in a HDPE plastic pouch.
Both were placed in an area out of direct sunlight and further the second sample was protected from light by a cardboard box.
Measurements of their voltage were taken using an ORP meter in accordance with the testing procedure described in the ORP related articles above.
Samples were kept in an office environment in Richmond on an exposed bench.
Sampling Equipment EUTECH INSTRUMENTS Waterproof ORPTestr 10

[11] = system: Streptococcus; test: Disinfection of effluents, streptococcus; type: cell-based; details: trickling filters effluents
[12] = ClO2 dose 2.7 mg/L, contact time 5 min
[13] = ClO2 dose 2.7 mg/L, contact time 20 min
[14] = ClO2 dose 10.8 mg/L, contact time 5 min
[15] = ClO2 dose 10.8 mg/L, contact time 20 min

SMILES: [O][Cl+][O-] [Chlorine Dioxide, chlorine dioxide]
- reduction in titer [1]: > 6 log 10
- reduction of infectivity for mice [2]: > 3 log 10
- Total Coliforms ([3]; pH initial 4.6, final 4.4): 4.5 MPN per 100 ml
- Total Coliforms ([3]; pH initial 5.5, final 5.6): 7.8 MPN per 100 ml
- Total Coliforms ([3]; pH initial 6.5, final 6.7): 7.8 MPN per 100 ml
- Total Coliforms ([3]; pH initial 7.5, final 7.6): 49 MPN per 100 ml
- Total Coliforms ([3]; pH initial 8.2, final 8.1): 4.6 × 10^2 MPN per 100 ml
- Total Coliforms ([3]; pH initial 9.1, final 9.2): 5.4 × 10^3 MPN per 100 ml
- Total Coliforms ([3]; pH initial 10.0, final 10.0): 2.4 × 10^4 MPN per 100 ml
- Total Coliform per 100 mL [3, 12]: 2.4 × 10^7 per 100 mL
- Total Coliform per 100 mL [3, 13]: 1.3 × 10^7 per 100 mL
- Total Coliform per 100 mL ([3]; ClO2 dose 2.7 mg/L, contact time 35 min): 2.4 × 10^6 per 100 mL
- Total Coliform per 100 mL ([3]; ClO2 dose 5.0 mg/L, contact time 15 min): 2.4 × 10^6 per 100 mL
- Total Coliform per 100 mL ([3]; ClO2 dose 5.0 mg/L, contact time 30 min): 7.9 × 10^3 per 100 mL
- Total Coliform per 100 mL ([3]; ClO2 dose 5.0 mg/L, contact time 45 min): 2.4 × 10^3 per 100 mL
- Total Coliform per 100 mL [3, 14]: 1.3 × 10^3 per 100 mL
- Total Coliform per 100 mL [3, 15]: 3.3 × 10^2 per 100 mL
- E-Coli Phage ([4]; pH initial 4.6, final 4.4): 0 MPN per 100 ml
- E-Coli Phage ([4]; pH initial 5.5, final 5.6): 0 MPN per 100 ml
- E-Coli Phage ([4]; pH initial 6.5, final 6.7): 0 MPN per 100 ml
- E-Coli Phage ([4]; pH initial 7.5, final 7.6): 0 MPN per 100 ml
- E-Coli Phage ([4]; pH initial 8.2, final 8.1): 2 MPN per 100 ml
- E-Coli Phage ([4]; pH initial 9.1, final 9.2): 79 MPN per 100 ml
- E-Coli Phage ([4]; pH initial 10.0, final 10.0): 79 MPN per 100 ml
- Deactivation (%) [5]: 99.999%
- Deactivation (%) [6]: 99.999%
- reduction in titer [7]: > 4 log 10
- reduction in titer [8]: > 6 log 10
- Total microbio counts [9]: 1-5 organisms/ml
- ORP mV ([10]; Card Board Wine Cask, April 20 (2005/2006)): 991 mV
- ORP mV ([10]; Card Board Wine Cask, August 3 (2005/2006)): 987 mV
- ORP mV ([10]; Card Board Wine Cask, August 24 (2005/2006)): 1143 mV
- ORP mV ([10]; Card Board Wine Cask, January 18 (2005/2006)): 1021 mV
- ORP mV ([10]; Card Board Wine Cask, July 7 (2005/2006, first entry)): 970 mV
- ORP mV ([10]; Card Board Wine Cask, July 12 (2005/2006, last entry)): 975 mV
- ORP mV ([10]; Card Board Wine Cask, July 18 (2005/2006)): 980 mV
- ORP mV ([10]; Card Board Wine Cask, June 2 (2005/2006)): 970 mV
- ORP mV ([10]; Card Board Wine Cask, March 14 (2005/2006)): 1008 mV
- ORP mV ([10]; Card Board Wine Cask, May 11 (2005/2006)): 970 mV
- ORP mV ([10]; Card Board Wine Cask, November 29 (2005/2006)): 977 mV
- ORP mV ([10]; Card Board Wine Cask, October 21 (2005/2006)): 1036 mV
- ORP mV ([10]; Card Board Wine Cask, September 5 (2005/2006)): 1135 mV
- ORP mV ([10]; Card Board Wine Cask, September 20 (2005/2006)): 1130 mV
- ORP mV ([10]; Sample PET bottle, April 20 2005): 975 mV
- ORP mV ([10]; Sample PET bottle, Aug 8 2005): 926 mV
- ORP mV ([10]; Sample PET bottle, Aug 24 2005): 960 mV
- ORP mV ([10]; Sample PET bottle, July 10 2005): 960 mV
- ORP mV ([10]; Sample PET bottle, July 20 2005): 954 mV
- ORP mV ([10]; Sample PET bottle, June 12 2005): 970 mV
- ORP mV ([10]; Sample PET bottle, June 21 2005): 965 mV
- ORP mV ([10]; Sample PET bottle, May 10 2005): 980 mV
- ORP mV ([10]; Sample PET bottle, May 20 2005): 971 mV
- ORP mV ([10]; Sample PET bottle, Oct 12 2005): 948 mV
- ORP mV ([10]; Sample PET bottle, Oct 28 2005): 941 mV
- ORP mV ([10]; Sample PET bottle, Sept 5 2005): 955 mV
- ORP mV ([10]; Sample PET bottle, Sept 20 2005): 954 mV
- Streptococcus per 100 mL [11, 12]: 8.4 × 10^7 per 100 mL
- Streptococcus per 100 mL [11, 13]: 2.4 × 10^7 per 100 mL
- Streptococcus per 100 mL [11, 14]: 2.7 × 10^5 per 100 mL
- Streptococcus per 100 mL [11, 15]: 8.0 × 10^3 per 100 mL
